Test results reported in ChEMBL document CHEMBL4630908 (2021).
Active and inactive are the calls of the source. The rule behind the calls is not given here.

Key:
[1] = target: ATPase family AAA domain-containing protein 2 (Homo sapiens, UniProt Q6PL18); assay: ATAD2A DiscoverX BROMOscan
[2] = target: T1, Bromodomain-containing protein 3 (Homo sapiens, UniProt Q15059); assay: BRD3(1,2) DiscoverX BROMOscan
[3] = target: Muscarinic acetylcholine receptor M5 (Homo sapiens) (UniProt P08912); conditions: Compound concentration 10.0 uM
[4] = target: Nucleosome-remodeling factor subunit BPTF (Homo sapiens, UniProt Q12830); assay: FALZ DiscoverX BROMOscan
[5] = target: Bromodomain-containing protein 8 (Homo sapiens, UniProt Q9H0E9); assay: BRD8(2) DiscoverX BROMOscan
[6] = target: T2, GABA-A receptor; anion channel (Rattus norvegicus) (UniProt O09028+P15431+P18506+P18508+P19969+P20236+P23574+P23576+P28471+P28473+P30191+P62813+P63079+P63138+Q91ZM7+Q9ES14); conditions: Compound concentration 10.0 uM
[7] = target: ATPase family AAA domain-containing protein 2B (Homo sapiens, UniProt Q9ULI0); assay: ATAD2B DiscoverX BROMOscan
[8] = target: 5-hydroxytryptamine receptor 2C (Homo sapiens) (UniProt P28335); conditions: Compound concentration 10.0 uM
[9] = target: Alpha-1B adrenergic receptor (Homo sapiens) (UniProt P35368); conditions: Compound concentration 10.0 uM
[10] = target: SWI/SNF-related matrix-associated actin-dependent regulator of chromatin subfamily A member 2 (Homo sapiens, UniProt P51531); assay: SMARCA2 DiscoverX BROMOscan
[11] = target: T2, GABA-A receptor; anion channel (Rattus norvegicus); conditions: Compound concentration 10.0 uM; remark: listed apart in the source
[12] = target: C-C motif chemokine 2 (Homo sapiens, UniProt P13500); assay: In vitro inhibition of MCP-1 in Lipopolysaccharide-stimulated human whole blood; assay type: tissue-based
[13] = target: Protein polybromo-1 (Homo sapiens, UniProt Q86U86); assay: PBRM1(5) DiscoverX BROMOscan
[14] = target: D(2) dopamine receptor (Homo sapiens, UniProt P14416); conditions: Compound concentration 10.0 uM
[15] = target: 5-hydroxytryptamine receptor 2C (Homo sapiens) (UniProt P28335); assay: (§1) Cross screening panel; conditions: filed as antagonist
[16] = target: 5-hydroxytryptamine receptor 2A (Homo sapiens, UniProt P28223); assay: as §1; conditions: filed as antagonist
[17] = target: T1, Bromodomain-containing protein 3; assay: BRD3(2) DiscoverX BROMOscan
[18] = target: 5-hydroxytryptamine receptor 1B (Homo sapiens, UniProt P28222); conditions: Compound concentration 10.0 uM
[19] = target: Histone acetyltransferase p300 (Homo sapiens, UniProt Q09472); assay: EP300 DiscoverX BROMOscan

Sequence of 5-hydroxytryptamine receptor 2C (Homo sapiens) (P28335 whole entry): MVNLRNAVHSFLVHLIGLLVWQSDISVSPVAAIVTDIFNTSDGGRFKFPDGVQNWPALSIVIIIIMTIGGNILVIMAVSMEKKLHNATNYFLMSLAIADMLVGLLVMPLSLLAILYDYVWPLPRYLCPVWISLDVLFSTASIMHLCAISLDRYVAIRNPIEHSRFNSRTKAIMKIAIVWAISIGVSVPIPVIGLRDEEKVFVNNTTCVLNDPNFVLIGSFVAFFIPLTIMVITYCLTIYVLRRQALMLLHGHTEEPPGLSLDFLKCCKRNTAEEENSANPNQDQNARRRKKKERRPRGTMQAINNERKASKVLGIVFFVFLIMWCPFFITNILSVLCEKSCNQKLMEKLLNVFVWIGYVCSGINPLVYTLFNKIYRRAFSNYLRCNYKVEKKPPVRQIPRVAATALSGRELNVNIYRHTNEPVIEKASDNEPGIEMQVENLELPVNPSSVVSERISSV
T1 sequence (Q15059 whole entry): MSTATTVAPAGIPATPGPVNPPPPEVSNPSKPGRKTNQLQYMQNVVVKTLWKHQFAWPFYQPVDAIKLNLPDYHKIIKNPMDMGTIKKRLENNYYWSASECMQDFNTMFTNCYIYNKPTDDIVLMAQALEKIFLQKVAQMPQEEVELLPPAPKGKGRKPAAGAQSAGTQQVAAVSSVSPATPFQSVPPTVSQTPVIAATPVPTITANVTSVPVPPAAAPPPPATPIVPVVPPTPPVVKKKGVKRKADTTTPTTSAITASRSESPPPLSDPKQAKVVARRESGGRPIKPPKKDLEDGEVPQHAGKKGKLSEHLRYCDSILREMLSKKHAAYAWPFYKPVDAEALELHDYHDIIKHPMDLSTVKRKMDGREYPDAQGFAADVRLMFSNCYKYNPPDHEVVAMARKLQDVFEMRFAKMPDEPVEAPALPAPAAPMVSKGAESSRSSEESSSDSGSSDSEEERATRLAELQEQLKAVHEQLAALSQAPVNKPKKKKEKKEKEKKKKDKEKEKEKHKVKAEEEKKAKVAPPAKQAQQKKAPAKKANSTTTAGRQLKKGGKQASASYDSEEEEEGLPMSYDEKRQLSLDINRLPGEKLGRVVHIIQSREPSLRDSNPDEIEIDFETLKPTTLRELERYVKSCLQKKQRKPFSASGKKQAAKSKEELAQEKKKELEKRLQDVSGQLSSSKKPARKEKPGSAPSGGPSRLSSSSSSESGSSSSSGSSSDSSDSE
Sequence of ATPase family AAA domain-containing protein 2 (Q6PL18 whole entry, the tested form may be a part): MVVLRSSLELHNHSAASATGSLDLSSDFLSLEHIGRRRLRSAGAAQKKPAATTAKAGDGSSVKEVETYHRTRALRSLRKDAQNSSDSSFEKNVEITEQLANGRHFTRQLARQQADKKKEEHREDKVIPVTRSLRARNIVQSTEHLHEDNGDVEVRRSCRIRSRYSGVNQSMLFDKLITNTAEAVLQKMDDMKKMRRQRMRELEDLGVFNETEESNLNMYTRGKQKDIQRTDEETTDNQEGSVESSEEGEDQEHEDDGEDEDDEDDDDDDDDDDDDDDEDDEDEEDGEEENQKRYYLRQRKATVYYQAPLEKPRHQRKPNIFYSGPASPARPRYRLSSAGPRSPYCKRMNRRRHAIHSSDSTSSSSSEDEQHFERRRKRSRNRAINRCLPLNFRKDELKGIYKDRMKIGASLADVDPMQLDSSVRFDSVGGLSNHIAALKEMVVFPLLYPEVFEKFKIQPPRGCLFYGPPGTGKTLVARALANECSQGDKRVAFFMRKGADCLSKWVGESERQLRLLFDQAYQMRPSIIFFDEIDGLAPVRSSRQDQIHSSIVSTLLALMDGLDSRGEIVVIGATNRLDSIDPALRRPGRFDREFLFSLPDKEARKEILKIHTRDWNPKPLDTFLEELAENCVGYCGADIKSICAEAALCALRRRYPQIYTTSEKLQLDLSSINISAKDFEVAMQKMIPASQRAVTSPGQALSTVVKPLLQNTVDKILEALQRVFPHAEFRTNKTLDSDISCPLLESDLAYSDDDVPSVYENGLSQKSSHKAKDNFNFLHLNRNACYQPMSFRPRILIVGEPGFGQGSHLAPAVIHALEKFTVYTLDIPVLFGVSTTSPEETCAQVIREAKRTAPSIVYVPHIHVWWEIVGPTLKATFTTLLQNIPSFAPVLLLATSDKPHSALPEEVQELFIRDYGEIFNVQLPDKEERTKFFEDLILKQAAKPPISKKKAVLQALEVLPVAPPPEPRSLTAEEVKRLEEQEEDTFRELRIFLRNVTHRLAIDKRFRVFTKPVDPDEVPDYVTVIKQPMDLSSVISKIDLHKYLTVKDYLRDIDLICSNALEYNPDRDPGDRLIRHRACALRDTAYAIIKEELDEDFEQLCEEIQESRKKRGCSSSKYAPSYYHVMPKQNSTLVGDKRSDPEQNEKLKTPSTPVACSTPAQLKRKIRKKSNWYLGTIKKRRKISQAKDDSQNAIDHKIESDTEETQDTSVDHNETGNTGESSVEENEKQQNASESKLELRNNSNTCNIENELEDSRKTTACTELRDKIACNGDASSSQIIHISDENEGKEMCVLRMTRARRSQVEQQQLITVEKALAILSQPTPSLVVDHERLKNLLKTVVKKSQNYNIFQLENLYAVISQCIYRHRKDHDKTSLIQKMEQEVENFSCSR
Sequence of ATPase family AAA domain-containing protein 2B (Q9ULI0 whole entry, the tested form may be a part): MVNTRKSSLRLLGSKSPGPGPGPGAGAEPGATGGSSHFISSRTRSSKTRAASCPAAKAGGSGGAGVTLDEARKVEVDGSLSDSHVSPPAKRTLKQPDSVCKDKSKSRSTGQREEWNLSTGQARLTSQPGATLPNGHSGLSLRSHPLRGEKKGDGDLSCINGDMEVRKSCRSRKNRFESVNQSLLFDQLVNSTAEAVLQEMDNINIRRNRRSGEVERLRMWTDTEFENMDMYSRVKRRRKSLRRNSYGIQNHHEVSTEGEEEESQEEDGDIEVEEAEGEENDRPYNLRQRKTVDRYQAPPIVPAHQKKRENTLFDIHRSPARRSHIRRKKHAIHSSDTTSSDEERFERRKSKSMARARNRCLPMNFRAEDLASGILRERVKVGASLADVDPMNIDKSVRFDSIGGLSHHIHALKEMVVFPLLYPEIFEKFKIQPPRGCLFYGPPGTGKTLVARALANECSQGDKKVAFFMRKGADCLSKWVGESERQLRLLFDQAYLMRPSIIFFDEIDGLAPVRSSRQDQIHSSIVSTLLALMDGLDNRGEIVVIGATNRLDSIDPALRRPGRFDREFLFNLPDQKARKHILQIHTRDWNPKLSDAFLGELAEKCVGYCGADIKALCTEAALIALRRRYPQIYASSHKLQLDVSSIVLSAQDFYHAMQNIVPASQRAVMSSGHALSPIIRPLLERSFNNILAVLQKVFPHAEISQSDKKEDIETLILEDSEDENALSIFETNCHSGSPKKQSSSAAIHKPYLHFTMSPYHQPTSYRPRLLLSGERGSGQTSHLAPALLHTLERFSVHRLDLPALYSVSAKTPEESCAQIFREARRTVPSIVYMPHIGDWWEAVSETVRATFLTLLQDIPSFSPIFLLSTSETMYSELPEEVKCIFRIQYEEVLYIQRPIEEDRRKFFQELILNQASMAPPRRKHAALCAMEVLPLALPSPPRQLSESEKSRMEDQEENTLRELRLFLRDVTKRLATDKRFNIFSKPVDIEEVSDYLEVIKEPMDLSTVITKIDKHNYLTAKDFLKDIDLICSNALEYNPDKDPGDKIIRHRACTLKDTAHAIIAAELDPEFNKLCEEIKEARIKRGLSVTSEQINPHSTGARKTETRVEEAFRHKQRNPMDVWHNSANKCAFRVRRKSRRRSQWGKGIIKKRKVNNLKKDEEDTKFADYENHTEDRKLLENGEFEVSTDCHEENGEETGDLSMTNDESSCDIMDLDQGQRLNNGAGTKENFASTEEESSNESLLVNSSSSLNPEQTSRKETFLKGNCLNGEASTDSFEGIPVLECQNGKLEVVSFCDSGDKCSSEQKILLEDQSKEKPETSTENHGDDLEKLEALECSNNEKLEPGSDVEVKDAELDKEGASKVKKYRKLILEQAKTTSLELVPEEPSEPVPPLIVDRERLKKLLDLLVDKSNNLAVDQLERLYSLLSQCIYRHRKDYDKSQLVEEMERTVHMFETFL
Sequence of D(2) dopamine receptor (P14416 whole entry): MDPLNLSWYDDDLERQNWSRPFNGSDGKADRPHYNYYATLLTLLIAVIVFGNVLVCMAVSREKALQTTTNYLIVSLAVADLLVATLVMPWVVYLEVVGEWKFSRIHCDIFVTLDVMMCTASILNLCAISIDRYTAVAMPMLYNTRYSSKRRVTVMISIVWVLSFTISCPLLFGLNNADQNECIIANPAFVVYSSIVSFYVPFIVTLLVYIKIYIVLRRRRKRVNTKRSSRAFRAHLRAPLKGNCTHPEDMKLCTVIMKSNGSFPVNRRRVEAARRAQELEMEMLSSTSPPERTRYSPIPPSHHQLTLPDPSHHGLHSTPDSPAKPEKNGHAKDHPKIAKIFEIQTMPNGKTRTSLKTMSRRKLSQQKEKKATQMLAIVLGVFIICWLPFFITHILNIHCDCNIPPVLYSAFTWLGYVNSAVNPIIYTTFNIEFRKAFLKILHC
Sequence of Muscarinic acetylcholine receptor M5 (Homo sapiens) (P08912 whole entry): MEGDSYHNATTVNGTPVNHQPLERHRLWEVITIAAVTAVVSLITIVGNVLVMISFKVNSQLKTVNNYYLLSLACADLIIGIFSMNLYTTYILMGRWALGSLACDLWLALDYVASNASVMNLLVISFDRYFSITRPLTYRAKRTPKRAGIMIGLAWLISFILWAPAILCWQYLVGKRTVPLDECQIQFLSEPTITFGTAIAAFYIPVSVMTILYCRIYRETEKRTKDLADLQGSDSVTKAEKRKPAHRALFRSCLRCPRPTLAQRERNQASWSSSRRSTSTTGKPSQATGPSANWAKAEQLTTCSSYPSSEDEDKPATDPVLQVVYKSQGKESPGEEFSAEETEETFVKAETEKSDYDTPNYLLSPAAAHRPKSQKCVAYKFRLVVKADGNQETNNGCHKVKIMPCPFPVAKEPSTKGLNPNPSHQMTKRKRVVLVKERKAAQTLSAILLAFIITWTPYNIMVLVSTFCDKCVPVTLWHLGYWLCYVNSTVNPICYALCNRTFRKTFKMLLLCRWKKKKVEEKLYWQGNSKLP

For CC(=O)Nc1c(F)cc(C(=O)N[C@H]2CC[C@H](O)CC2)cc1O[C@@H](C)c1ccccc1 [GSK046], the Kd [1] was 30 µM, the Kd [2] was 0.047 µM and the inhibition [3] was 0.93%. The Kd [4] was 30 µM, the Kd [5] was 30 µM and the inhibition [6] was 0.61%. The Kd [7] was 30 µM, the inhibition [8] was 14% and the inhibition [9] was -0.75%. For the same molecule, the Kd [10] was 30 µM, the inhibition [11] was 15.3% and the IC50 [12] was 0.316 µM (active). For the same molecule, the Kd [13] was 30 µM, the inhibition [14] was 25.8% and the fpKi [15] was < 4.6. For the same molecule, the fpKi [16] was < 4.6, the Kd [17] was 0.033 µM and the inhibition [18] was 11.6%. For the same molecule, the Kd [19] was 30 µM.
